Measured values published in US9718825B2, “N-(4-(azaindazol-6-yl)-phenyl)-sulfonamides and their use as pharmaceuticals” (priority 2013, dated 2017).

Tests used:
[1] = molecular target: recombinant human SGK-1 enzyme (Homo sapiens, UniProt O00141); assay: Enzymatic activity assay: SGK-1 substrate peptide phosphorylation (Caliper lab-chip mobility shift); format: biochemical; settings: peptide substrate 1 μM, ATP 10 μM, 60 min at 37° C., read-out: IC50 values for inhibition of SGK-1 enzymatic activity
Chain of recombinant human SGK-1 enzyme (O00141 whole entry, looked up): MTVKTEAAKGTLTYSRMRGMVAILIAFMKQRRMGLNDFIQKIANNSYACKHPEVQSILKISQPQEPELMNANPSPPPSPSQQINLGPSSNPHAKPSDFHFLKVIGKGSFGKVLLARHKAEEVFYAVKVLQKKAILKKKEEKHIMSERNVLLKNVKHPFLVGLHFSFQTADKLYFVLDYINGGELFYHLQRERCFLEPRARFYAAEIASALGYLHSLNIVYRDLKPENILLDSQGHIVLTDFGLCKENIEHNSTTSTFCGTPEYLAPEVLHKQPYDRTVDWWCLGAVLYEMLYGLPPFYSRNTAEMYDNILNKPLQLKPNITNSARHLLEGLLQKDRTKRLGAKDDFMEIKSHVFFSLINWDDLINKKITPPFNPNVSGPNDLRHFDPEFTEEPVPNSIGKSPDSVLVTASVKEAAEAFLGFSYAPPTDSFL

[2] = tested on: SGK-1 dependent phosphorylation of GSK3beta in U2OS cells; assay: SGK-1 dependent phosphorylation of GSK3beta in U2OS cells overexpressing recombinant SGK-1 and GSK3beta; format: cell-based, human; settings: U2OS cells, 6 h incubation, ratio of phosphorylated GSK3beta to total GSK3beta; read-out: IC50 values for inhibition of SGK-1 dependent phosphorylation of GSK3beta in U2OS cells

For `CC(C)Oc1nc(-c2ccc(NS(=O)(=O)c3cc(Cl)ccc3Cl)cc2)nc2[nH]nc(N)c12` [Example 335], which IC50 [1] is on record?
Its IC50 is 8.3 nM.

And the IC50 [2]?
The IC50 was 350 nM.

`COc1ccc(C#N)c(S(=O)(=O)Nc2ccc(-c3nc(OCC(C)C)c4c(N)n[nH]c4n3)cc2)c1` [Example 336] was tested. Which IC50 [1] did it give?
The IC50 was 5.5 nM.

And the IC50 [2]?
The IC50 was 190 nM.

Which IC50 [1] does the source give for `Cc1ccc(F)c(S(=O)(=O)Nc2ccc(-c3nc(OC4CCCNC4)c4c(C)n[nH]c4n3)cc2)c1` (centres unmarked) [Example 338] here?
The IC50 was 1.6 nM.

And the IC50 [2]?
Its IC50 is 44 nM.

Which IC50 [1] does the source give for `Cc1n[nH]c2nc(-c3ccc(NS(=O)(=O)c4cc(Cl)ccc4F)cc3)nc(OC3CCCNC3)c12` (centres unmarked) [Example 339] here?
Its IC50 is 1.3 nM.

What about the IC50 [2] of the same compound?
Its IC50 is 45 nM.

How did the IC50 [1] turn out when `COc1ccc(Cl)c(S(=O)(=O)Nc2ccc(-c3nc(OC4CCN(CCF)CC4)c4c(C)n[nH]c4n3)cc2)c1` [Example 341] was run?
The IC50 was 4.9 nM.

What about the IC50 [2] of the same compound?
Its IC50 is 63 nM.

Which results are given for `Cc1n[nH]c2nc(-c3ccc(NS(=O)(=O)c4cc(Cl)ccc4Cl)cc3)nc(OC3CCN(CCF)CC3)c12` [Example 342]?
IC50 [1]: 6 nM; IC50 [2]: 280 nM

Which IC50 [1] does the source give for `Cc1ccc(C#N)c(S(=O)(=O)Nc2ccc(-c3nc(OC4CCN(CCF)CC4)c4c(C)n[nH]c4n3)cc2)c1` [Example 343] here?
Its IC50 is 3.8 nM.

What about the IC50 [2] of the same compound?
Its IC50 is 68 nM.

For `Cc1n[nH]c2nc(-c3ccc(NS(=O)(=O)c4cc(Cl)ccc4Cl)c(F)c3)ncc12` [Example 434], which IC50 [1] is on record?
Its IC50 is 1.8 nM.

And the IC50 [2]?
The IC50 was 3500 nM.

How did the IC50 [1] turn out when `O=S(=O)(Nc1ccc(-c2nc(N3CC(O)C3)c3cn[nH]c3n2)cc1F)c1cc(Cl)ccc1Cl` [Example 437] was run?
Its IC50 is 100 nM.

And the IC50 [2]?
The IC50 was 1800 nM.

With `O=S(=O)(Nc1ccc(-c2nc(N3CCC(O)C3)c3cn[nH]c3n2)cc1F)c1cc(Cl)ccc1Cl` (centres unmarked) [Example 438] as the compound, how does the IC50 [1] read?
Its IC50 is 85 nM.

And the IC50 [2]?
The IC50 was 7800 nM.

Which IC50 [1] does the source give for `O=S(=O)(Nc1ccc(-c2nc(N3CC(CO)C3)c3cn[nH]c3n2)cc1F)c1cc(Cl)ccc1F` [Example 441] here?
The IC50 was 21 nM.

What about the IC50 [2] of the same compound?
The IC50 was 11000 nM.

For `O=S(=O)(Nc1ccc(-c2nc(OC3CNC3)c3cn[nH]c3n2)cc1F)c1cc(Cl)ccc1F` [Example 442], which IC50 [1] is on record?
Its IC50 is 29 nM.

And the IC50 [2]?
Its IC50 is 1300 nM.

Which IC50 [1] does the source give for `O=S(=O)(Nc1ccc(-c2nc(C3CC3)c3cn[nH]c3n2)cc1F)c1cc(Cl)ccc1F` [Example 443] here?
Its IC50 is 94 nM.

And the IC50 [2]?
The IC50 was 320 nM.

Which results are given for `Nc1n[nH]c2nc(-c3ccc(NS(=O)(=O)c4cc(Cl)ccc4Cl)cc3)ncc12` [Example 452]?
IC50 [1]: 2 nM; IC50 [2]: 980 nM

With `Cc1ccc(F)c(S(=O)(=O)Nc2ccc(-c3ncc4c(N)n[nH]c4n3)cc2)c1` [Example 455] as the compound, how does the IC50 [1] read?
Its IC50 is less than 1.5 nM.

And the IC50 [2]?
Its IC50 is 390 nM.

How did the IC50 [1] turn out when `N#Cc1c(Cl)cccc1S(=O)(=O)Nc1ccc(-c2ncc3c(N)n[nH]c3n2)cc1` [Example 456] was run?
The IC50 was 6.2 nM.

What about the IC50 [2] of the same compound?
The IC50 was 8900 nM.

`Nc1n[nH]c2nc(-c3ccc(NS(=O)(=O)c4cc5c(cc4Br)OCCCO5)cc3)ncc12` [Example 459] was tested. Which IC50 [1] did it give?
The IC50 was 6.7 nM.

What about the IC50 [2] of the same compound?
The IC50 was 4000 nM.

`Nc1n[nH]c2nc(-c3ccc(NS(=O)(=O)c4cc(Cl)sc4Cl)cc3)ncc12` [Example 463] was tested. Which IC50 [1] did it give?
The IC50 was 2.5 nM.

And the IC50 [2]?
Its IC50 is 120 nM.

For `Cc1nc(-c2ccc(NS(=O)(=O)c3cc(Cl)ccc3F)cc2)nc2[nH]nc(N)c12` [Example 466], which IC50 [1] is on record?
Its IC50 is less than 1.5 nM.

And the IC50 [2]?
Its IC50 is 260 nM.

`Cc1nc(-c2ccc(NS(=O)(=O)c3cccc(Cl)c3C#N)cc2)nc2[nH]nc(N)c12` [Example 470] was tested. Which IC50 [1] did it give?
Its IC50 is 11 nM.

What about the IC50 [2] of the same compound?
Its IC50 is 2000 nM.

Which IC50 [1] does the source give for `Cc1ccc(F)c(S(=O)(=O)Nc2ccc(-c3nc(C)c4c(N)n[nH]c4n3)cc2)c1` [Example 472] here?
The IC50 was 1.5 nM.

And the IC50 [2]?
The IC50 was 330 nM.

How did the IC50 [1] turn out when `Cc1ccc(C#N)cc1S(=O)(=O)Nc1ccc(-c2nc(C)c3c(N)n[nH]c3n2)cc1` [Example 473] was run?
Its IC50 is 32 nM.

What about the IC50 [2] of the same compound?
Its IC50 is 8200 nM.

For `Cc1nc(-c2ccc(NS(=O)(=O)c3cccc(F)c3C#N)cc2)nc2[nH]nc(N)c12` [Example 474], which IC50 [1] is on record?
The IC50 was 12 nM.

What about the IC50 [2] of the same compound?
Its IC50 is 11000 nM.

With `Cc1nc(-c2ccc(NS(=O)(=O)c3cc4c(cc3Cl)OCCCO4)cc2)nc2[nH]nc(N)c12` [Example 476] as the compound, how does the IC50 [1] read?
The IC50 was 3.9 nM.

What about the IC50 [2] of the same compound?
The IC50 was 3000 nM.

What does the source list for `Cc1nc(-c2ccc(NS(=O)(=O)c3cc4c(cc3Br)OCCCO4)cc2)nc2[nH]nc(N)c12` [Example 477]?
IC50 [1]: 4.8 nM; IC50 [2]: 4500 nM

How did the IC50 [1] turn out when `Cc1nc(-c2ccc(NS(=O)(=O)c3cc(F)cc(F)c3Cl)cc2)nc2[nH]nc(N)c12` [Example 479] was run?
The IC50 was 16 nM.

What about the IC50 [2] of the same compound?
The IC50 was 280 nM.

`COc1ccc(Cl)c(S(=O)(=O)Nc2ccc(-c3nc(C)c4cn[nH]c4n3)cc2)c1` [Example 491] was tested. Which IC50 [1] did it give?
Its IC50 is 1.8 nM.

And the IC50 [2]?
Its IC50 is 2000 nM.

Which results are given for `Cc1nc(-c2ccc(NS(=O)(=O)c3cc(Cl)ccc3C#N)cc2)nc2[nH]nc(N3CCCC4(COC4)C3)c12` [Example 499]?
IC50 [1]: 8.9 nM; IC50 [2]: 8800 nM

Which results are given for `Nc1n[nH]c2nc(-c3ccc(NS(=O)(=O)c4cc(Cl)sc4Cl)cc3)nc(C3CC3)c12` [Example 500]?
IC50 [1]: 2.7 nM; IC50 [2]: 250 nM

With `COCCc1nc(-c2ccc(NS(=O)(=O)c3cc(Cl)c(F)cc3F)cc2)nc2[nH]nc(N)c12` [Example 501] as the compound, how does the IC50 [1] read?
The IC50 was 40 nM.

What about the IC50 [2] of the same compound?
Its IC50 is 450 nM.

What does the source list for `COCCc1nc(-c2ccc(NS(=O)(=O)c3cc(OC)ccc3Cl)cc2)nc2[nH]nc(N)c12` [Example 502]?
IC50 [1]: 18 nM; IC50 [2]: 420 nM

How did the IC50 [1] turn out when `COCCc1nc(-c2ccc(NS(=O)(=O)c3cc(C)ccc3F)cc2)nc2[nH]nc(N)c12` [Example 503] was run?
Its IC50 is 29 nM.

And the IC50 [2]?
The IC50 was 630 nM.

`COCCc1nc(-c2ccc(NS(=O)(=O)c3cc(OC)ccc3F)cc2)nc2[nH]nc(N)c12` [Example 504] was tested. Which IC50 [1] did it give?
The IC50 was 12 nM.

And the IC50 [2]?
The IC50 was 300 nM.

With `COCCc1nc(-c2ccc(NS(=O)(=O)c3cc(Cl)ccc3Cl)cc2)nc2[nH]nc(N)c12` [Example 505] as the compound, how does the IC50 [1] read?
The IC50 was 47 nM.

And the IC50 [2]?
Its IC50 is 620 nM.

Which results are given for `COCCc1nc(-c2ccc(NS(=O)(=O)c3cc(Cl)ccc3F)cc2)nc2[nH]nc(N)c12` [Example 506]?
IC50 [1]: 110 nM; IC50 [2]: 670 nM

Which results are given for `COCCc1nc(-c2ccc(NS(=O)(=O)c3cc(Cl)sc3Cl)cc2)nc2[nH]nc(N)c12` [Example 509]?
IC50 [1]: 310 nM; IC50 [2]: 2500 nM

Which results are given for `COCCc1nc(-c2ccc(NS(=O)(=O)c3cc(C)ccc3C#N)cc2)nc2[nH]nc(N)c12` [Example 513]?
IC50 [1]: 68 nM; IC50 [2]: 300 nM

Which results are given for `Nc1n[nH]c2nc(-c3ccc(NS(=O)(=O)c4cc(F)c(F)cc4Cl)cc3)ncc12` [Example 514]?
IC50 [1]: 250 nM; IC50 [2]: 270 nM

How did the IC50 [1] turn out when `Nc1n[nH]c2nc(-c3ccc(NS(=O)(=O)c4cccc(Cl)c4F)cc3)ncc12` [Example 515] was run?
The IC50 was 350 nM.

And the IC50 [2]?
Its IC50 is 530 nM.

Which IC50 [1] does the source give for `Nc1n[nH]c2nc(-c3ccc(NS(=O)(=O)c4cc(F)c(F)cc4F)cc3)ncc12` [Example 516] here?
The IC50 was 300 nM.

And the IC50 [2]?
The IC50 was 640 nM.

Which IC50 [1] does the source give for `Nc1n[nH]c2nc(-c3ccc(NS(=O)(=O)c4ccccc4F)cc3)ncc12` [Example 517] here?
The IC50 was 420 nM.

What about the IC50 [2] of the same compound?
Its IC50 is 170 nM.

With `COCCc1nc(-c2ccc(NS(=O)(=O)c3cc(OC)ccc3C#N)cc2)nc2[nH]nc(N)c12` [Example 521] as the compound, how does the IC50 [1] read?
The IC50 was 65 nM.

And the IC50 [2]?
Its IC50 is 480 nM.

Which results are given for `COc1ccc(C#N)c(S(=O)(=O)Nc2ccc(-c3ncc4c(N)n[nH]c4n3)cc2)c1` [Example 522]?
IC50 [1]: 2.4 nM; IC50 [2]: 290 nM
